Values after ≈ are worked out from the molar mass of the structure shown.
What was measured:
[1] = test system: Plasmodium falciparum TM91C235; test: In vitro antimalarial [3H]-hypoxanthine incorporation assay, strain TM91C235; type: cell-based; conditions: P. falciparum TM91C235 (multiple drug resistant isolate from Thailand), parasites exposed for 72 hours, azithromycin value averaged
Source text: (§1) The in vitro screens for intrinsic antimalarial activity were based on modifications of the procedures described by Desjardins R E, Canfield C J, Haynes J D, Chulay J D. (Quantitative assessment of antimalarial activity in vitro by a semiautomated microdilution technique. Antimicrob Agents Chemother. 1979 December; 16(6):710-8.), Chulay J D, Haynes J D, Diggs C L. (Plasmodium falciparum: Assessment of in vitro growth by [3H]hypoxanthine incorporation. Exp. Parasitol. 1983 55:138-146.), and Milhous W N, Weatherly N F, Bowdre J H, Desjardins R E. (In vitro activities of and mechanisms of resistance to antifol antimalarial drugs. Antimicrob Agents Chemother. 1985 April; 27(4):525-30.). The system was limited to the assessment of the intrinsic activity against the erythrocytic asexual life cycle (blood schizontocides). Two Plasmodium falciparum clones from CDC/Indochina III (W-2) and CDC/Sierra Leone I (D-6) (Oduola A M, Weatherly N F, Bowdre J H, Desjardins R E. Plasmodium falciparum: cloning by single-erythrocyte micromanipulation and heterogeneity in vitro. Exp Parasitol. 1988 66(1):86-95.) were used for all assays. TM91C235, a multiple drug resistant isolate from Thailand, was used for the prescreening assay. W-2 is resistant to chloroquine, quinine, and pyrimethamine and susceptible to mefloquine. D-6 tends to be more resistant to mefloquine and susceptible to chloroquine, quinine, and pyrimethamine. All documents cited in this paragraph are incorporated by reference in their entirety.
(§2) All parasites were maintained in continuous long term cultures in RPMI-1640 medium supplemented with 6% washed human A positive (A+)(erythrocytes, 25 mM Hepes, […], and 10% heat inactivated A+ human plasma or ALBUMAX® (lipid-rich bovine serum albumin; Invitrogen, Carlsbad, Calif.). All cultures and assays were conducted at 37° C. under an atmosphere of 5% CO2 and 5% O2, with a balance of N2.
(§3) The prescreening assay uses TM91C235 diluted at a 0.4% parasitemia in a 1% hematocrit in folic acid free and p-aminobenzoic acid free media RPMI-1640 and ALBUMAX®. One mg of the compound is typically dissolved in 100 μl of dimethyl sulfoxide (DMSO). The compound is further diluted in culture medium (FF) with ALBUMAX® for the first initial starting concentration. The rest of the stock drug solution was kept at −70° C. The isolate was preexposed, in duplicate, at three concentrations (25,000 ng/ml, 2,500 ng/ml, and 25 ng/ml) of the test compound for 48 hr in a 96-well microtiter plate (MTP) using the BIOMEK® 2000 automated laboratory workstation. Each MTP contains chloroquine as control to assess the relative activity of the compound and to monitor the response of TM91C235.
(§4) After the preincubation, [^3H]-hypoxanthine was added to each well of the MTP. (The assay relies on the incorporation of radiolabeled hypoxanthine by the parasites, which indicates reproduction, and inhibition of isotope incorporation was attributed to activity of known or candidate antimalarial drugs). After 72 hr of total incubation time, the MTP were frozen to lyse the erythrocytes and parasites. The parasite DNA was recovered by harvesting the lysate onto glass-fiber filter plates using a Packard FilterMate™ Cell Harvester. The radioactivity was counted on a Packard TopCount™ microplate scintillation counter. The results were recorded as counts per minutes (CPM) per well at each drug concentration divided by the arithmetic mean of the CPM from the three untreated infection parasite control wells.
(§5) The serial dilution assay was conducted using the same assay conditions and stock solution of the compound used for the preliminary screen, described above. Both the D-6 and the W-2 clones were used. The compounds were diluted two-fold over 11 different concentration ranges with a starting concentration that was based on the preliminary screen. […]

[2] = test system: Plasmodium falciparum D-6 (CDC/Sierra Leone I); test: In vitro antimalarial [3H]-hypoxanthine incorporation serial dilution assay, clone D6; type: cell-based; conditions: P. falciparum D6 clone, parasites exposed for 72 hours, azithromycin value averaged
Source text: as §1, §2, §3, §4, §5

[3] = test system: Plasmodium falciparum W-2 (CDC/Indochina III); test: In vitro antimalarial [3H]-hypoxanthine incorporation serial dilution assay, clone W2; type: cell-based; conditions: P. falciparum W2 clone, parasites exposed for 72 hours, azithromycin value averaged
Source text: as §1, §2, §3, §4, §5

[4] = test system: Plasinodium falciparum; conditions: non-immune patients, Plasmodium falciparum, as compared to controls; cited from earlier work
[5] = test system: Plasmodium vivax; conditions: non-immune patients, as compared to controls; cited from earlier work
[6] = test system: Plasmodium cynomolgi; conditions: rhesus monkey; cited from earlier work
[7] = test system: Plasmodium berghei; conditions: cited from earlier work
[8] = test system: Plasmodium yoelii nigeriensis; conditions: cited from earlier work

| Compound | IC50 [1] | IC50 [2] | IC50 [3] | prophylactic efficacy [4] | prophylactic efficacy [5] | efficacy in monkey model [6] | activity in mouse model [7] | activity in mouse model [8] |
| --- | --- | --- | --- | --- | --- | --- | --- | --- |
| CC[C@H]1OC(=O)[C@H](C)[C@@H](O)[C@H](C)[C@@H](O[C@@H]2O[C@H](C)C[C@H](N(C)C)[C@H]2O)[C@](C)(O)C[C@@H](C)CN(C(=O)Nc2ccc(S(=O)(=O)Nc3cc(C)on3)cc2)[C@H](C)[C@@H](O)[C@]1(C)O [Compound 5] | > 1.62 µg/mL | 0.0523 µg/mL (≈ 0.0611 µM) | > 1.76 µg/mL | – | – | – | – | – |
| CC[C@H]1OC(=O)[C@H](C)[C@@H](O[C@H]2C[C@@](C)(OC)[C@@H](O)[C@H](C)O2)[C@H](C)[C@@H](O[C@@H]2O[C@H](C)C[C@H](N(C)C)[C@H]2OC(C)=O)[C@](C)(O)C[C@@H](C)CN(C(=O)NC(C)C)[C@H](C)[C@@H](O)[C@]1(C)O [Compound 10] | 0.353 µg/mL (≈ 0.41 µM) | > 0.797 µg/mL | > 1.76 µg/mL | – | – | – | – | – |
| CC[C@H]1OC(=O)[C@H](C)[C@@H](O[C@H]2C[C@@](C)(OC)[C@@H](O)[C@H](C)O2)[C@H](C)[C@@H](O[C@@H]2O[C@H](C)C[C@H](N(C)C)[C@H]2O)[C@](C)(O)C[C@@H](C)CN(C)[C@H](C)[C@@H](O)[C@]1(C)O [azithromycin] | – | – | – | 71.6% | 98.9% | active | – | – |
| CC[C@H]1OC(=O)[C@H](C)[C@@H](O[C@H]2C[C@@](C)(OC)[C@@H](O)[C@H](C)O2)[C@H](C)[C@@H](O[C@@H]2O[C@H](C)C[C@H](N(C)C)[C@H]2O)[C@](C)(O)C[C@@H](C)CN(C(=O)Nc2ccc(S(=O)(=O)Nc3ccccc3)cc2)[C@H](C)[C@@H](O)[C@]1(C)O [Compound 1] | 0.299 µg/mL (≈ 0.296 µM) | 0.428 µg/mL (≈ 0.424 µM) | 0.448 µg/mL (≈ 0.444 µM) | – | – | – | – | – |
| CC[C@H]1OC(=O)[C@H](C)[C@@H](O[C@H]2C[C@@](C)(OC)[C@@H](O)[C@H](C)O2)[C@H](C)[C@@H](O[C@@H]2O[C@H](C)C[C@H](N(C)C)[C@H]2O)[C@](C)(O)C[C@@H](C)CN(C(=O)Nc2cccc(Cl)c2)[C@H](C)[C@@H](O)[C@]1(C)O [Compound 7] | – | 0.583 µg/mL (≈ 0.656 µM) | 1.22 µg/mL (≈ 1.37 µM) | – | – | – | – | – |
| CC[C@H]1OC(=O)[C@H](C)[C@@H](O[C@H]2C[C@@](C)(OC)[C@@H](O)[C@H](C)O2)[C@H](C)[C@@H](O[C@@H]2O[C@H](C)C[C@H](N(C)C)[C@H]2O)[C@](C)(O)C[C@@H](C)CN(C(=O)Nc2ccc(S(=O)(=O)Nc3ccccn3)cc2)[C@H](C)[C@@H](O)[C@]1(C)O [Compound 2] | 1.03 µg/mL (≈ 1.02 µM) | 0.251 µg/mL (≈ 0.248 µM) | > 1.76 µg/mL | – | – | – | – | – |
| midecamycinin | – | – | – | – | – | no efficacy | active | active |
| CC[C@H]1OC(=O)[C@H](C)[C@@H](O[C@H]2C[C@@](C)(OC)[C@@H](O)[C@H](C)O2)[C@H](C)[C@@H](O[C@@H]2O[C@H](C)C[C@H](N(C)C)[C@H]2O)[C@](C)(O)C[C@@H](C)CN(C(=O)Nc2ccc(S(=O)(=O)Nc3cc(C)on3)cc2)[C@H](C)[C@@H](O)[C@]1(C)O [Compound 4] | > 1.62 µg/mL | 0.12 µg/mL (≈ 0.118 µM) | 1.59 µg/mL (≈ 1.57 µM) | – | – | – | – | – |
| CC[C@H]1OC(=O)[C@H](C)[C@@H](O[C@H]2C[C@@](C)(OC)[C@@H](O)[C@H](C)O2)[C@H](C)[C@@H](O[C@@H]2O[C@H](C)C[C@H](N(C)C)[C@H]2O)[C@](C)(O)C[C@@H](C)CN(C(=S)Nc2cccc(Cl)c2)[C@H](C)[C@@H](O)[C@]1(C)O [Compound 9] | – | 0.762 µg/mL (≈ 0.843 µM) | 1.5 µg/mL (≈ 1.66 µM) | – | – | – | – | – |
| CC[C@H]1OC(=O)[C@H](C)[C@@H](O[C@H]2C[C@@](C)(OC)[C@@H](O)[C@H](C)O2)[C@H](C)[C@@H](O[C@@H]2O[C@H](C)C[C@H](N(C)C)[C@H]2O)[C@](C)(O)C[C@@H](C)CN(C(=O)NS(=O)(=O)c2ccccc2Cl)[C@H](C)[C@@H](O)[C@]1(C)O [Compound 3] | > 1.62 µg/mL | 1.11 µg/mL (≈ 1.17 µM) | 1.43 µg/mL (≈ 1.5 µM) | – | – | – | – | – |
| CC[C@H]1OC(=O)[C@H](C)[C@@H](O[C@H]2C[C@@](C)(OC)[C@@H](O)[C@H](C)O2)[C@H](C)[C@@H](O[C@@H]2O[C@H](C)C[C@H](N(C)C)[C@H]2O)[C@](C)(O)C[C@@H](C)CN(C(=S)NCc2ccccc2)[C@H](C)[C@@H](O)[C@]1(C)O [Compound 11] | 0.304 µg/mL (≈ 0.344 µM) | 0.253 µg/mL (≈ 0.286 µM) | 0.386 µg/mL (≈ 0.436 µM) | – | – | – | – | – |
| CC[C@H]1OC(=O)[C@H](C)[C@@H](O)[C@H](C)[C@@H](O[C@@H]2O[C@H](C)C[C@H](N(C)C)[C@H]2O)[C@](C)(O)C[C@@H](C)CN(C(=O)Nc2ccc(S(=O)(=O)Nc3ccccn3)cc2)[C@H](C)[C@@H](O)[C@]1(C)O [Compound 6] | > 1.62 µg/mL | 0.0908 µg/mL (≈ 0.107 µM) | > 1.76 µg/mL | – | – | – | – | – |
| CC[C@H]1OC(=O)[C@H](C)[C@@H](O[C@H]2C[C@@](C)(OC)[C@@H](O)[C@H](C)O2)[C@H](C)[C@@H](O[C@@H]2O[C@H](C)C[C@H](N(C)C)[C@H]2O)[C@](C)(O)C[C@@H](C)CN(C(=O)Nc2cccc3ccccc23)[C@H](C)[C@@H](O)[C@]1(C)O [Compound 8] | 0.712 µg/mL (≈ 0.788 µM) | 0.751 µg/mL (≈ 0.831 µM) | 1.9 µg/mL (≈ 2.11 µM) | – | – | – | – | – |
